# Data: patent US20250171437A1 (Agios Pharmaceuticals,Inc., priority 2022, published 2025)
# Molecular target: T1, human PAH with the R408W mutation (A375 R408W cells) (Homo sapiens, UniProt P00439, R408W)
# T1 construct: expressed in transfected cells
# T1 sequence (P00439 1-452 R408W): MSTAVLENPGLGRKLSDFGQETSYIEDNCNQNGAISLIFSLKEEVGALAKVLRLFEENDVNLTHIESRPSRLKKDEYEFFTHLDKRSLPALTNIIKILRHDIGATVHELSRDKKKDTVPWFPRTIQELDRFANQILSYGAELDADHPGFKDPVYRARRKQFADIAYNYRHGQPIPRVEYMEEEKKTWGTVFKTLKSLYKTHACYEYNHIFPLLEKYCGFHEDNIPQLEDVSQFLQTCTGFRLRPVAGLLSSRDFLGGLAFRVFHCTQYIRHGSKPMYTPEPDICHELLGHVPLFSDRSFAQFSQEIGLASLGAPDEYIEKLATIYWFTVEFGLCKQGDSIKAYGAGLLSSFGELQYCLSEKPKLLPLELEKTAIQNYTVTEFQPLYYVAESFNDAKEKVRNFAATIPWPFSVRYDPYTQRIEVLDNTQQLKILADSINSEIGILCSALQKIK
# Assay: Cell Based Phenylalanine Flux Assay
# Conditions: A375 R408W cells; 24 hrs with compound, then 20 μM sepiapterin and 800 μM 13C9,15N-Phenylalanine for 4 hours; 13C-Tyrosine by LC-MS; average where tested multiple times
# Procedure, shortened: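 Puromycin-selected A375 line, lentiviral hPAH R408W; cmpd 24 h, 37 °C, 5% CO2, 0.5% DMSO; then 20 μM sepiapterin + 800 μM 13C9,15N-Phe, 4 h; media extracted in 80% MeCN; 13C-Tyr by LC-MS; AC50 from 10-pt curves.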
row,AC50,SMILES
1,0.5 to 1 µM,"O=C(c1nnc(-c2ccn(C(F)F)n2)o1)N1CCc2[nH]cnc2[C@@H]1c1nc2c(F)ccc(F)c2o1 [Example 815, (R)-(4-(4,7-difluorobenzo[d]oxazol-2-yl)-6,7-dihydro-1H-imidazo[4,5-c]pyridin-5(4H)-yl)(5-(1-(difluoromethyl)-1H-pyrazol-3-yl)-1,3,4-oxadiazol-2-yl)methanone]"
2,≤ 0.5 µM,"O=C(c1nnc(-c2ccn(C(F)F)n2)o1)N1CCc2[nH]cnc2[C@@H]1c1nc2c(F)ccc(F)c2o1 [Example 816, (R)-(4-(4,7-difluorobenzo[d]oxazol-2-yl)-6,7-dihydro-1H-imidazo[4,5-c]pyridin-5(4H)-yl)(5-(1-(difluoromethyl)-1H-pyrazol-3-yl)-1,3,4-oxadiazol-2-yl)methanone]"
3,0.5 to 1 µM,"Cn1cnc(-c2nnc(C(=O)N3CCc4[nH]cnc4[C@H]3c3nc4c(F)ccc(F)c4o3)o2)c1 [Example 817, (S)-(4-(4,7-difluorobenzo[d]oxazol-2-yl)-6,7-dihydro-1H-imidazo[4,5-c]pyridin-5(4H)-yl)(5-(1-methyl-1H-imidazol-4-yl)-1,3,4-oxadiazol-2-yl)methanone]"
4,1 to 5 µM,"Cn1cnc(-c2nnc(C(=O)N3CCc4[nH]cnc4[C@@H]3c3nc4c(F)ccc(F)c4o3)o2)c1 [Example 818, (R)-(4-(4,7-difluorobenzo[d]oxazol-2-yl)-6,7-dihydro-1H-imidazo[4,5-c]pyridin-5(4H)-yl)(5-(1-methyl-1H-imidazol-4-yl)-1,3,4-oxadiazol-2-yl)methanone]"
5,0.5 to 1 µM,"Cc1nc(C(=O)N2CCc3[nH]cnc3[C@H]2c2nc3c(C)cccc3o2)n(C)n1 [Example 819, (S)-(1,3-dimethyl-1H-1,2,4-triazol-5-yl)(4-(4-methylbenzo[d]oxazol-2-yl)-6,7-dihydro-1H-imidazo[4,5-c]pyridin-5(4H)-yl)methanone]"
6,≥ 5 µM,"Cc1nc(C(=O)N2CCc3[nH]cnc3[C@@H]2c2nc3c(C)cccc3o2)n(C)n1 [Example 820, (R)-(1,3-dimethyl-1H-1,2,4-triazol-5-yl)(4-(4-methylbenzo[d]oxazol-2-yl)-6,7-dihydro-1H-imidazo[4,5-c]pyridin-5(4H)-yl)methanone]"
7,≤ 0.5 µM,"COc1cccc2nc([C@@H]3c4nc[nH]c4CCN3C(=O)c3cc(C)nn3C)oc12 [Example 821, (S)-(1,3-dimethyl-1H-pyrazol-5-yl)(4-(7-methoxybenzo[d]oxazol-2-yl)-6,7-dihydro-1H-imidazo[4,5-c]pyridin-5(4H)-yl)methanone]"
8,1 to 5 µM,"COc1cccc2nc([C@H]3c4nc[nH]c4CCN3C(=O)c3cc(C)nn3C)oc12 [Example 822, (R)-(1,3-dimethyl-1H-pyrazol-5-yl)(4-(7-methoxybenzo[d]oxazol-2-yl)-6,7-dihydro-1H-imidazo[4,5-c]pyridin-5(4H)-yl)methanone]"
9,1 to 5 µM,"CC(C)(CO)c1nc(C(F)F)c(C(=O)N2CCc3[nH]cnc3[C@@H]2c2nc3cc(F)ccc3o2)o1 [Example 823, (R)-(4-(difluoromethyl)-2-(1-hydroxy-2-methylpropan-2-yl)oxazol-5-yl)(4-(5-fluorobenzo[d]oxazol-2-yl)-6,7-dihydro-1H-imidazo[4,5-c]pyridin-5(4H)-yl)methanone]"
10,≤ 0.5 µM,"CC(C)(CO)c1nc(C(F)F)c(C(=O)N2CCc3[nH]cnc3[C@H]2c2nc3cc(F)ccc3o2)o1 [Example 824, (S)-(4-(difluoromethyl)-2-(1-hydroxy-2-methylpropan-2-yl)oxazol-5-yl)(4-(5-fluorobenzo[d]oxazol-2-yl)-6,7-dihydro-1H-imidazo[4,5-c]pyridin-5(4H)-yl)methanone]"
11,1 to 5 µM,"Cc1nc(-c2ccn(C)n2)oc1C(=O)N1CCc2[nH]cnc2[C@H]1c1nc2cc(F)ccc2o1 [Example 825, (S)-(4-(5-fluorobenzo[d]oxazol-2-yl)-6,7-dihydro-1H-imidazo[4,5-c]pyridin-5(4H)-yl)(4-methyl-2-(1-methyl-1H-pyrazol-3-yl)oxazol-5-yl)methanone]"
12,≥ 5 µM,"Cc1nc(-c2ccn(C)n2)oc1C(=O)N1CCc2[nH]cnc2[C@@H]1c1nc2cc(F)ccc2o1 [Example 826, (R)-(4-(5-fluorobenzo[d]oxazol-2-yl)-6,7-dihydro-1H-imidazo[4,5-c]pyridin-5(4H)-yl)(4-methyl-2-(1-methyl-1H-pyrazol-3-yl)oxazol-5-yl)methanone]"
13,1 to 5 µM,"COc1cccc2oc([C@@H]3c4nc[nH]c4CCN3C(=O)c3nc(C)nn3C)nc12 [Example 827, (S)-(1,3-dimethyl-1H-1,2,4-triazol-5-yl)(4-(4-methoxybenzo[d]oxazol-2-yl)-6,7-dihydro-1H-imidazo[4,5-c]pyridin-5(4H)-yl)methanone]"
14,≥ 5 µM,"COc1cccc2oc([C@H]3c4nc[nH]c4CCN3C(=O)c3nc(C)nn3C)nc12 [Example 828, (R)-(1,3-dimethyl-1H-1,2,4-triazol-5-yl)(4-(4-methoxybenzo[d]oxazol-2-yl)-6,7-dihydro-1H-imidazo[4,5-c]pyridin-5(4H)-yl)methanone]"
15,1 to 5 µM,"Cn1cc(-c2nnc(C(=O)N3CCc4[nH]cnc4[C@@H]3c3nc4cccc(C(F)(F)F)c4o3)o2)cn1 [Example 829, (R)-(5-(1-methyl-1H-pyrazol-4-yl)-1,3,4-oxadiazol-2-yl)(4-(7-(trifluoromethyl)benzo[d]oxazol-2-yl)-6,7-dihydro-1H-imidazo[4,5-c]pyridin-5(4H)-yl)methanone]"
16,0.5 to 1 µM,"Cn1cc(-c2nnc(C(=O)N3CCc4[nH]cnc4[C@H]3c3nc4cccc(C(F)(F)F)c4o3)o2)cn1 [Example 830, (S)-(5-(1-methyl-1H-pyrazol-4-yl)-1,3,4-oxadiazol-2-yl)(4-(7-(trifluoromethyl)benzo[d]oxazol-2-yl)-6,7-dihydro-1H-imidazo[4,5-c]pyridin-5(4H)-yl)methanone]"
17,0.5 to 1 µM,"Cn1ccc(-c2nnc(C(=O)N3CCc4[nH]cnc4[C@@H]3c3nc4cccc(C(F)(F)F)c4o3)o2)n1 [Example 831, (R)-(5-(1-methyl-1H-pyrazol-3-yl)-1,3,4-oxadiazol-2-yl)(4-(7-(trifluoromethyl)benzo[d]oxazol-2-yl)-6,7-dihydro-1H-imidazo[4,5-c]pyridin-5(4H)-yl)methanone]"
18,≤ 0.5 µM,"Cn1ccc(-c2nnc(C(=O)N3CCc4[nH]cnc4[C@H]3c3nc4cccc(C(F)(F)F)c4o3)o2)n1 [Example 832, (S)-(5-(1-methyl-1H-pyrazol-3-yl)-1,3,4-oxadiazol-2-yl)(4-(7-(trifluoromethyl)benzo[d]oxazol-2-yl)-6,7-dihydro-1H-imidazo[4,5-c]pyridin-5(4H)-yl)methanone]"
19,≤ 0.5 µM,"O=C(c1nnc(-c2ncccc2F)o1)N1CCc2[nH]cnc2[C@H]1c1nc2ccccc2o1 [Example 833, (S)-(4-(benzo[d]oxazol-2-yl)-6,7-dihydro-1H-imidazo[4,5-c]pyridin-5(4H)-yl)(5-(3-fluoropyridin-2-yl)-1,3,4-oxadiazol-2-yl)methanone]"
20,0.5 to 1 µM,"O=C(c1nnc(-c2ncccc2F)o1)N1CCc2[nH]cnc2[C@@H]1c1nc2ccccc2o1 [Example 834, (R)-(4-(benzo[d]oxazol-2-yl)-6,7-dihydro-1H-imidazo[4,5-c]pyridin-5(4H)-yl)(5-(3-fluoropyridin-2-yl)-1,3,4-oxadiazol-2-yl)methanone]"
21,≤ 0.5 µM,"O=C(c1ccnn1CC(F)F)N1CCc2[nH]cnc2[C@H]1c1nc2ccccc2o1 [Example 835, (S)-(4-(benzo[d]oxazol-2-yl)-6,7-dihydro-1H-imidazo[4,5-c]pyridin-5(4H)-yl)(1-(2,2-difluoroethyl)-1H-pyrazol-5-yl)methanone]"
22,0.5 to 1 µM,"O=C(c1ccnn1CC(F)F)N1CCc2[nH]cnc2[C@@H]1c1nc2ccccc2o1 [Example 836, (R)-(4-(benzo[d]oxazol-2-yl)-6,7-dihydro-1H-imidazo[4,5-c]pyridin-5(4H)-yl)(1-(2,2-difluoroethyl)-1H-pyrazol-5-yl)methanone]"
23,0.5 to 1 µM,"O=C(c1nnc(-c2ccccn2)o1)N1CCc2[nH]cnc2[C@@H]1c1nc2cccc(C(F)(F)F)c2o1 [Example 837, (R)-(5-(pyridin-2-yl)-1,3,4-oxadiazol-2-yl)(4-(7-(trifluoromethyl)benzo[d]oxazol-2-yl)-6,7-dihydro-1H-imidazo[4,5-c]pyridin-5(4H)-yl)methanone]"
24,≤ 0.5 µM,"O=C(c1nnc(-c2ccccn2)o1)N1CCc2[nH]cnc2[C@H]1c1nc2cccc(C(F)(F)F)c2o1 [Example 838, (S)-(5-(pyridin-2-yl)-1,3,4-oxadiazol-2-yl)(4-(7-(trifluoromethyl)benzo[d]oxazol-2-yl)-6,7-dihydro-1H-imidazo[4,5-c]pyridin-5(4H)-yl)methanone]"
25,0.5 to 1 µM,"O=C(c1nnc(-c2ncccc2F)o1)N1CCc2[nH]cnc2[C@@H]1c1nc2cccc(C(F)(F)F)c2o1 [Example 839, (R)-(5-(3-fluoropyridin-2-yl)-1,3,4-oxadiazol-2-yl)(4-(7-(trifluoromethyl)benzo[d]oxazol-2-yl)-6,7-dihydro-1H-imidazo[4,5-c]pyridin-5(4H)-yl)methanone]"
26,≤ 0.5 µM,"O=C(c1nnc(-c2ncccc2F)o1)N1CCc2[nH]cnc2[C@H]1c1nc2cccc(C(F)(F)F)c2o1 [Example 840, (S)-(5-(3-fluoropyridin-2-yl)-1,3,4-oxadiazol-2-yl)(4-(7-(trifluoromethyl)benzo[d]oxazol-2-yl)-6,7-dihydro-1H-imidazo[4,5-c]pyridin-5(4H)-yl)methanone]"
